Test results taken from patent publication US6958318B2, “Recombinant bacterial cells for delivery of PNP to tumor cells” (The UAB Research Foundation, priority 1993, dated 2005).
Values joined by “and” are separate entries in the source; they are usually repeats but may differ in a detail not shown here. Identical values can stand only once. “Also recorded” adds a separate entry of the source.

Columns and labels:
E. coli PNP [1] = molecular target: T1, E. coli PNP (Escherichia coli, UniProt P0ABP8); assay type: biochemical
[2] = system: tumor cells transduced with the E. coli PNP; assay: Killing of PNP-transduced tumor cells in vitro by other prodrugs; assay type: cell-based
Source text: In addition to MeP-dR, two other prodrugs suitable for E. coli PNP activation in tumor cells can be applied to the methodology of the present invention. These prodrugs are F-araA and 2-F-2′deoxyadenosine. […] As desired, this dose had no effect on control untransduced, tumor cells.

E. coli PNP [3] = molecular target: T1, E. coli PNP
human PNP = molecular target: T2, human PNP (Homo sapiens, UniProt P00491); assay: Cleavage of purine analog nucleosides by human PNP (HPLC); assay type: biochemical
T2 sequence (P00491 1-289): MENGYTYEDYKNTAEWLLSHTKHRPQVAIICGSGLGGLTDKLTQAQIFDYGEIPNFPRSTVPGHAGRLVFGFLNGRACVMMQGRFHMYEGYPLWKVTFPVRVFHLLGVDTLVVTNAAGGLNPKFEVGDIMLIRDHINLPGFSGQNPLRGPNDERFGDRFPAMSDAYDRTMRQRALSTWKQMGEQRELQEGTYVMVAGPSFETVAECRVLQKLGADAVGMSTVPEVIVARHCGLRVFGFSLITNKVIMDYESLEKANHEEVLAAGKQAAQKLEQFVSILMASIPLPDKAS

wild-type 16/C tumors = assay: Wild-type 16/C tumors in B6C3F1 mice; assay type: in vivo
Method: (§1) Transduced 16/C cells were implanted in mice by subcutaneous injection of approximately 10^6 cells harvested from the cultures of stably transduced 16/C cells described above. The mice were examined visibly for tumor growth and those with developing tumors were maintained. To prepare mice for use in the in vivo experiments, the tumors were removed from mice with significant tumor growth and cut into 30-60 mg pieces. One 30-60 mg piece of the tumor was subcutaneously implanted into the subaxillary region of each female B6C3F1 mouse. The tumors were allowed to develop and mice with tumors of 100 mm^3 were used.
Six mice (B6C3F1) per group with established wild type 16/C tumors were treated with an aqueous control solution, MeP-dR (100 mg/kg IP qd×3d) or 2-fluoro-arabinofuranosyladenine monophosphate (F-araAMP) (100 mg/kg IP, […]). The wild type tumors grew rapidly in the presence or absence of either of the prodrugs. […] (Table III, Wild-type 16/C treatment).

[4] = system: wild type murine breast carcinoma cells (16/C cell line); assay: Wild-type 16/C tumors in nude mice; assay type: in vivo; conditions: FIG. 6
Method: For studies conducted with nu/nu mice, cells obtained from stable cultures of transduced cell lines were injected subcutaneously into the right or left flank of the mice. Mice with visible tumor growth were used for further studies. For the administration of purine prodrug, mice were administered MeP-dR or F-araAMP by IP injection.
Four to five nude (nu/nu) mice per group were inoculated with wild type murine breast carcinoma cells (16/C cell line), or PNP transduced 16/C cells. Mice with established tumors (approximately 100 mm^3) were treated with MeP-dR (100 mg/kg/d IP×3 d) or F-araAMP (100 mg/kg/IP 3 id×3 d).

16/C-PNP cells = assay: 16/C-PNP tumors in athymic nude mice; conditions: 100 mg/kg IP 3 id × 3 d; monophosphate
D54-PNP tumors = assay: E. coli PNP-transduced D54 glioma tumors in nude mice; assay type: in vivo; conditions: previous studies
Method: Female athymic nude mice (nu/nu) were implanted sc with 2×10^7 cells of either D54 parental tumor cells (D54-wt) or D54 tumor cells that had been transduced with the E. coli PNP (D54-PNP). After the tumors had grown to approximately 150 mg, they were treated ip with either vehicle or 67 mg/kg of MeP-dR (IP) once a day for 3 days (days 6, 7 and 8 after implantation). The tumor sizes were measured twice a week after treatment.
A confirmation experiment was set up exactly as described above, except that animals were treated with two doses of MeP-dR (45 and 67 mg/kg) (FIGS. 10 and 11). The results of this experiment were similar (Table V). There were 8 of 10 complete regressions in mice bearing the D54-PNP tumors that were treated with 67 mg/kg of MeP-dR. In 4 mice the tumors subsequently returned and grew. There were still 4 of 10 tumor-free survivors 60 days after the treatment had stopped. […] There were 2 of 10 complete regressions and 3 partial responses. […] The delay in the time required to double twice due to treatment with MeP-dR was 5 to 6 days in the non-transduced tumors and greater than 24 days in transduced tumors. In this experiment, the growth rate of the D54-PNP tumors was considerably slower than it was in the first experiment. There was no change in the growth rate of the D54-wt tumors. The reason for the slow growth rate of the D54-PNP tumors in this experiment is not known. […] (In other words, if a tumor was too small to measure, it was not included in the average size). This means that the overall tumor regressions in the D54 PNP group are actually much more pronounced than they appear in FIGS. 8-11.

D54 glioma tumors = assay: D54 tumors of mixed wild-type and transduced cells (80 to 20); conditions: in vivo
16/C-PNP tumors = assay: E. coli PNP-transduced 16/C tumors in B6C3F1 mice; assay type: in vivo
Method: as §1
Six mice per group with established PNP-transduced 16/C tumors were treated with aqueous control solution, MeP-dR or F-ara AMP, as above. […] (Table III, 16/C-PNP treatment.)

PNP transduced tumors = assay type: in vivo; conditions: mouse, in vivo
Mel-1 cells = assay: Wild type melanoma cell viability; assay type: cell-based, human; conditions: concentrations as low as 0.5 μg/ml, five days
[5] = system: T-84 colon carcinoma cells; assay: Toxicity of MeP and MeP-dR in untransfected T-84 cells; assay type: cell-based, human
Method: T-84 colon carcinoma cells were grown in Dulbecco's modified Eagle medium containing F12 nutrient medium (DMEM/F12) (GIBCO/BRL, Gaithersburg, Md.) in 6 well trays to a density of approximately […] (−20% confluency).
Untransfected T-84 colon carcinoma cells were treated with increasing concentrations of either MeP-dR or MeP. After 5 days the cells were removed from each well and the number of dye excluding cells were determined with the aid of a hemacytometer. Cells were studied both at passage 48 (p. 48) and passage 61 (p. 61). MeP was obtained from Sigma Chemical Company (St. Louis, Mo.). MeP-dR was synthesized by standard methods as described (J. A. Montgomery and K. Howson, J. Med. Chem., 11:48-52 (1968)). The nucleoside and base were dissolved in serum free DMEM/F12 at a concentration of 1 mg/ml and added directly to 1 ml DMEM/F12 with 10% fetal bovine serum at the concentrations described below in order to cover 1-2×10^5 cells/well.
Initial cytopathic effects due to MeP were observed within 24 hours (for example, rounding of cells, with some cells detaching from plate). Viable cells were counted 5 days following addition of drug. […] Trypan blue exclusion was used to confirm viability in cells retaining recognizable structure at all concentrations studied. […] If the toxicity of MeP-dR is due to very low levels of liberation of MeP by human PNP, then combination with selective inhibitors of human PNP could prevent this toxicity.

[6] = Stability under tissue culture conditions (HPLC of supernatants); conditions: HPLC analysis of supernatants
[7] = system: CF PAC (human pancreatic adenocarcinoma) cells; assay: Intratumoral MeP in established human pancreatic tumors in SCID mice; assay type: in vivo; conditions: once a day for three days
Method: CF PAC (human pancreatic adenocarcinoma) cells were grown in T75 flasks, trypsinized, washed with PBS and then inoculated subcutaneously into female SCID mice at approximately 2×10^7 cells per animal. The tumors were allowed to grow for several days until they reached the size of approximately […]. At this point, groups of five animals were treated either with vehicle (PBS), PBS containing methyl purine (1.67 mg/kg) or PBS with a higher dose of methyl purine (5.0 mg/kg). Drug or vehicle was injected intratumorally with 3-4 needle passes. Animals were treated with either vehicle or drug one time each day for three days. The growth of the tumors was followed. Measurements in two dimension were used to approximate the overall tumor size. […] For example, purine analogs which are known to have strong cytotoxic activity such as 2-fluoroadenine, 2-fluoroadenosine, 9-[ribosyl]-6-methylpurine, 2-amino-6-chloro-1-deazapurine, 3-deazaguanine, 6-thioguanine, and 6-mercaptopurine can be directly administered to a tumor to cause regression and/or inhibit tumor growth.

CEM cells = assay: Toxicity to nondividing CEM cells (1% serum); assay type: cell-based; conditions: 10 μg/ml, non-proliferating cells in 1% serum
Method: Results from experiments indicate that MeP is able to kill non-proliferating cells. This distinguishes MeP from most other antitumor agents. In the first experiment, CEM cells were cultured in 1% serum instead of the normal 10% serum for 48 hours. Under these conditions, the cells stop growing and the cell numbers stabilize at 1.5 to 2 times the original cell numbers. Cell growth continues when cells are returned to culture medium containing 10% serum.

[8] = system: Nc1nc(F)nc2c1ncn2[C@H]1C[C@H](O)[C@@H](CO)O1; assay: purified protein, by the assay type
[9] = system: OC[C@H]1O[C@@H](n2cnc3c(O)ncnc32)[C@H](O)[C@@H]1O; assay: purified protein, by the assay type; conditions: other: enzyme source: Bacteria
[10] = IP for three days, MeP-dR 100, F-araAMP 500 mg/kg/day

T1 sequence (P0ABP8 2-239): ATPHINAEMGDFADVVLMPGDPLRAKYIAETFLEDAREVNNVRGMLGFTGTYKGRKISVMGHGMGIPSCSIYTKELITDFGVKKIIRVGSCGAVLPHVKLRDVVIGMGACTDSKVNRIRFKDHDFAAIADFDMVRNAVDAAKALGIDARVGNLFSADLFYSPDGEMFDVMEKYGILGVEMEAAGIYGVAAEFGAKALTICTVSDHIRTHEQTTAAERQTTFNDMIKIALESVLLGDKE

For `Nc1nc(F)nc2c1ncn2[C@@H]1O[C@H](CO)[C@@H](O)[C@@H]1O` [F-araA, 2-F-arabinofuranosyl-adenine], the “Percent of substrate cleaved by E. coli PNP, 100 μM” value (E. coli PNP [1]) was 3(86) Percent and 5(86) Percent, the “Substrate quality for bacterial (E. coli) PNP” value (E. coli PNP [1]) was “moderate substrates; also recorded: poorly cleaved” and the “Killing of PNP-transduced tumor cells in vitro” value [2] was “high level killing”. The “Killing of transduced versus untransduced tumor cells” value ([2]; 500 ng/ml) was “specifically killed transduced, but not untransduced, tumor cells”, the Km (E. coli PNP [3]) was 510 µM and the “Percent of substrate cleaved by Human PNP, 100 μM” value (human PNP) was 0(88) Percent and 0(86) Percent. For the same compound, the “Percent of substrate cleaved by Human PNP, 1 mM” value (human PNP) was 0(50) Percent and 0(47) Percent and the “Substrate quality for mammalian (human) PNP” value (human PNP) was “poor substrates; also recorded: not cleaved”.

With `Nc1nc(F)nc2c1ncn2[C@@H]1O[C@H](COP(=O)(O)O)[C@@H](O)[C@@H]1O` [F-araAMP, 2-fluoro-arabinofuranosyladenine monophosphate, reference compound] the “Complete Regressions/Total” value (wild-type 16/C tumors; [10]) was 0/6, the “Day delay (Treated-control)” value (wild-type 16/C tumors; [10]) was 2.7 days and the “Nonspecific Deaths/Total” value (wild-type 16/C tumors; [10]) was 0/6. For the same compound, the “Delay in tumor growth, in words” value (wild-type 16/C tumors; wild type 16/C) was “no statistically significant delay in tumor growth”, the “Effect on growth of wild-type 16/C tumors” value [4] was “only a small effect on tumor growth” and the “Effect of F-araAMP on growth of 16/C tumors expressing E. coli PNP” value (16/C-PNP cells) was “growth delay for at least ten days; also recorded: significantly inhibited the growth”. The “Activity against D54 glioma tumors expressing the E. coli PNP gene” value (D54-PNP tumors) was “good activity”, the “Activity against tumors of wild-type and transduced cells at 80 to 20” value (D54 glioma tumors) was “less active” and the “Complete Regressions/Total” value (16/C-PNP tumors; [10]) was 0/6. The “Day delay (Treated-control)” value (16/C-PNP tumors; [10]) was 3.3 days, the “Nonspecific Deaths/Total” value (16/C-PNP tumors; [10]) was 0/6 and the “Delay in time for three tumor doublings, in words” value (16/C-PNP tumors; p<0.01) was “statistically significant delay”. For the same compound, the “Days for tumor to double 3 times mean/SD” value (16/C-PNP tumors; tumors that completely regressed not included) was 12.1 ± 1.6 days and the “Anti-tumor effect on PNP transduced tumors in mice” value (PNP transduced tumors) was “in vivo regression”.

In the case of `Cc1ncnc2nc[nH]c12` [MeP, 6-methylpurine, reference compound], the “Lethality to Mel-1 cells” value (Mel-1 cells) is reported as roughly 100%, the “Time to initial cytopathic effects” value [5] is reported as no more than 24 h and the Effect on cells ([5]; MeP 3.75 μM-75 μM, by day 2) is reported as “cell lysis and complete loss of cellular architecture”. The “Stability under tissue culture conditions” value [6] was “stable”, the Tumor growth ([7]; 1.67 mg/kg intratumorally) was “intermediate effect upon tumor growth” and the Tumor growth ([7]; 5.0 mg/kg intratumorally) was “completely arrested in terms of their growth”. For the same compound, the “Cell numbers relative to original number” value (CEM cells) was “approximately 25%”.

For E. coli PNP (Escherichia coli K-12), the Km ([8]; other: enzyme source: Bacteria) was 44 µM, the Km ([8]; other: enzyme source: D54 cells (transduced)) was 38 µM and the Km [9] was 46 µM.
